The text below walks through data of patent US8163788B2, “Low-molecular inhibitors of cytohesin-family guanine nucleotide exchange factors” (Rheinische Friedrich-Wilhelms Universitat Bonn, priority 2004, dated 2012).

For this experiment, the system named is human dendritic cells. Put plainly: migration (chemotaxis) of dendritic cells in modified Boyden chambers on ICAM-1. The experiment is classed as cell-based. The note with it: 1 μM, 10 μM or 15 μM, 96 hours; chemokines CCL19 or CXCL12; FIG. 5. The method, then: Dendritic cells were produced in vitro by means of differentiation factors (IL-4 and GM-CSF) from blood monocytes that were isolated from peripheral mononuclear cells (PBMC) by Ficoll density gradient centrifugation from the human blood of anonymous donors.
The blood was mixed at a ratio of 1:1 with PBS (KCl 0.2 g/l, KH2PO4 0.2 g/l, NaCl 8 g/l, Na2HPO4 1.15 g/l, PAA, Cölbe)/2 mM EDTA and layered onto half the volume of Ficoll. Centrifugation was carried out at 300×g, 30 minutes with no brake. After the centrifugation, a centered white band appeared which contained the PBMC. This was picked up with PBS/2 mM EDTA, filled up to 50 ml and subjected to several washing steps at 640×g, 500×g, 400×g, 300×g and 200×g. Subsequently, the cells were picked up in a titer of 5×10^6/ml in “VLE-RPMI+/+”-medium (Biochrom, Berlin, containing 10% fetal calf serum (FCS) and 1% penicillin/streptomycin) and incubated for 90 minutes in an incubator at 37° C. [98.6° F.] and 5% CO2. During this time, the monocytes adhere to the bottom of the culture dish. […]
The quantitative analysis of the cell migration was carried out in modified Boyden chambers consisting of a 24-hole plate into which the Transwell® filters with a 5 μm pore size had been placed. […] [98.6° F.] and 5% CO2 in the incubator and subsequently, the number of cells that had migrated into the lower chamber in the direction of the chemokine was determined. […]

Structures are written as SMILES.

Turning to `COc1nc(-c2ccc3c(c2)OCO3)n(-c2ccc(NC(=O)CSc3ccccc3)cc2)n1` [Compound 9], the “inhibition of the migration of dendritic cells on the substrate ICAM-1” value was “concentration-dependent inhibition”.
